pEC50: −log10 of the molar value. Where two headings read alike, the source gives them in different places. e = 2'-O-(2-methoxyethyl) (MOE); {P} = phosphate; f = 2'-fluoro

Data set [1] in a line: Modified ssRNA 5′-phosphate serum stability assay (Example 60). Conditions: full length ssRNA with 5′-terminal phosphate; 10 μM in 95% fresh mouse serum, 37° C., LC/MS. In kind it is in vitro ADME. The text has this:
A serum stability assay is useful for evaluating the stability of oligomeric compounds in the presences of nucleases and other enzymes found in serum. For example, the stability of a 5′-terminal phosphate group of an oligomeric compound can be evaluated by assessing the ability of the 5′-terminal phosphate group to remain attached to the oligomeric compound in the presence of serum. Accordingly, a serum stability assay was employed to evaluate the stability of modified ssRNAs having a 5′-terminal phosphate group.
Various modified ssRNAs, shown below, having a 5′-terminal phosphate group (10 μM) were dissolved in 95% of fresh mouse serum and incubated at 37° C. Aliquots of serum (100 μL) were removed after 0, 1, 3, 6 or 24 hours of incubation times. The serum samples were immediately quenched and snap frozen. The samples were extracted by the strong anion exchange (SAX) and octadecylsilyl (C-18) columns. For each incubation time, the amount of full length modified ssRNA having a 5′-terminal phosphate group was determined by LC/MS, and the half-life of the full length modified ssRNA having a 5′ terminal phosphate group was calculated. The results are expressed as half-time (T1/2) in the table below.

For a further data set, the system named is PTEN. Briefly: PTEN mRNA reduction in HeLa cells, dose response (Example 59). In kind it is cell-based, human. Conditions: percent inhibition of PTEN mRNA, real-time PCR normalized to RIBOGREEN, 0.20-50 nM. As to the method:
When cells reached 65-75% confluency, they are treated with one or more oligomeric compounds. The oligomeric compound is mixed with LIPOFECTIN™ Invitrogen Life Technologies, Carlsbad, Calif.) in Opti-MEM™-1 reduced serum medium (Invitrogen Life Technologies, Carlsbad, Calif.) to achieve the desired concentration of the oligomeric compound(s) and a LIPOFECTIN™ concentration of 2.5 or 3 μg/mL per 100 nM oligomeric compound(s). This transfection mixture is incubated at room temperature for approximately 0.5 hours. For cells grown in 96-well plates, wells are washed once with 100 μL OPTI-MEM™-1 and then treated with 130 μL of the transfection mixture. Cells grown in 24-well plates or other standard tissue culture plates are treated similarly, using appropriate volumes of medium and oligomeric compound(s). […]
Quantitation of target mRNA levels is accomplished by real-time quantitative PCR using the ABI PRISM™ 7600, 7700, or 7900 Sequence Detection System (PE-Applied Biosystems, Foster City, Calif.) according to manufacturer's instructions. This is a closed-tube, non-gel-based, fluorescence detection system which allows high-throughput quantitation of polymerase chain reaction (PCR) products in real-time. As opposed to standard PCR in which amplification products are quantitated after the PCR is completed, products in real-time quantitative PCR are quantitated as they accumulate. […]
On the technique in general: Real-time PCR tracks product formation cycle by cycle.

The test system of another data set is human PTEN. Briefly: PTEN expression in HeLa cells, ssRNAs vs siRNAs (Example 62). In kind it is cell-based. Put shortly: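 HeLa cells treated with antisense strands either as single-stranded RNAs or duplexed with a common sense strand. PTEN mRNA levels normalized; IC50 from linear regression of normalized mRNA against log concentration.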

On to “P-UfUfGfUfCfUfCfUfGfGfUfCfCfUfUfAfCfUfUfAeAe (antisense UUGUCUCUGGUCCUUACUUAA; sugars from the 5' end f19 e2, 5' {P}, backbone not given here) [ISIS 404320, modified ssRNA targeting PTEN]”, for which the “T1/2” value in data set [1] came to 4 h. Also, the pEC50 – broadly, the negative decadic logarithm of the EC50, by convention in mol/L – in the data set on PTEN was 7.88. Moreover, the EC50 (usually the concentration that produces a half-maximal response) with human PTEN (antisense strand duplexed with sense strand ISIS 341401, PTEN mRNA, read-out: EC50 (nM) siRNA) is 0.5 nM; with human PTEN (single stranded antisense compound, PTEN mRNA, read-out: EC50 (nM) ssRNA), 5 nM.

The values above are taken from patent US20130156845A1, “LIPID FORMULATED SINGLE STRANDED RNA” (ALNYLAM PHARMACEUTICALS, INC., priority 2010, published 2013).
